Assay results from ChEMBL document CHEMBL6127079, “Design and synthesis of spiro[pyrrolidine-3,3'-quinoline]-2,2'-dione derivatives as novel antifungal agents targeting chitin synthase” (Eur J Med Chem, 2024).
Values after ≈ are worked out from the molar mass of the structure shown.

Assays:
Candida albicans [1] = assay: Antifungal activity against Candida albicans ATCC 76615 assessed as Polyoxin B MIC incubated for 24 hrs in presence of fluconazole by half broth dilution based checkerboard method; format: functional
Aspergillus flavus [2] = assay: Antifungal activity against Aspergillus flavus ATCC 16870 assessed as Polyoxin B MIC incubated for 24 hrs in presence of fluconazole by half broth dilution based checkerboard method; format: functional
Aspergillus fumigatus [3] = assay: Synergistic antifungal activity against Aspergillus fumigatus GIMCC 3.19 assessed as fractional inhibitory concentration index in presence of fluconazole incubated for 24 hrs by half broth dilution based checkerboard method; format: functional
[4] = Inhibition of chitin synthase extracted from Candida tropicalis ATCC 750 using UDP-GlcNAc as substrate assessed as inhibition rate by TMB based microplate analyzer relative to control
Aspergillus fumigatus [5] = assay: Antifungal activity against Aspergillus fumigatus GIMCC 3.19 assessed as inhibition of growth incubated for 24 hrs by two-fold serial dilution method; format: functional
Aspergillus flavus [6] = assay: Antifungal activity against Aspergillus flavus ATCC 16870 incubated for 24 hrs by half broth dilution based checkerboard method; format: functional
Aspergillus flavus [7] = assay: Synergistic antifungal activity against Aspergillus flavus ATCC 16870 assessed as fractional inhibitory concentration index in presence of Polyoxin B incubated for 24 hrs by half broth dilution based checkerboard method; format: functional
Aspergillus flavus [8] = assay: Antifungal activity against Aspergillus flavus ATCC 16870 assessed as fluconazole MIC incubated for 24 hrs in presence of fluconazole by half broth dilution based checkerboard method; format: functional
Aspergillus fumigatus [9] = assay: Antifungal activity against drug-resistant Aspergillus fumigatus GIMCC 3.19 assessed as inhibition of cell wall synthesis in presence of sorbitol incubated for 24 hrs; format: functional
Cryptococcus neoformans [10] = assay: Synergistic antifungal activity against Cryptococcus neoformans ATCC 32719 assessed as fractional inhibitory concentration index in presence of fluconazole incubated for 24 hrs by half broth dilution based checkerboard method; format: functional
Cryptococcus neoformans [11] = assay: Synergistic antifungal activity against Cryptococcus neoformans ATCC 32719 assessed as fractional inhibitory concentration index in presence of Polyoxin B incubated for 24 hrs by half broth dilution based checkerboard method; format: functional
Aspergillus fumigatus [12] = assay: Antifungal activity against fluconazole-resistant Aspergillus fumigatus GIMCC 3.19 assessed as inhibition of fungal growth incubated for 24 to 72 hrs; format: functional; details: time 24-72 hrs
Aspergillus flavus [13] = assay: Synergistic antifungal activity against Aspergillus flavus ATCC 16870 assessed as fractional inhibitory concentration index in presence of fluconazole incubated for 24 hrs by half broth dilution based checkerboard method; format: functional
Candida albicans [14] = assay: Antifungal activity against Candida albicans ATCC 76615 assessed as inhibition of growth incubated for 24 hrs by two-fold serial dilution method; format: functional
Aspergillus fumigatus [15] = assay: Antifungal activity against Aspergillus fumigatus GIMCC 3.19 assessed as Polyoxin B MIC incubated for 24 hrs in presence of fluconazole by half broth dilution based checkerboard method; format: functional
Cryptococcus neoformans [16] = assay: Antifungal activity against fluconazole-resistant Cryptococcus neoformans ATCC 32719 assessed as inhibition of fungal growth incubated for 24 to 72 hrs; format: functional; details: time 24-72 hrs
Cryptococcus neoformans [17] = assay: Antifungal activity against Cryptococcus neoformans ATCC 32719 assessed as fluconazole MIC incubated for 24 hrs in presence of fluconazole by half broth dilution based checkerboard method; format: functional
Aspergillus flavus [18] = assay: Antifungal activity against Aspergillus flavus ATCC 16870 assessed as inhibition of growth incubated for 24 hrs by two-fold serial dilution method; format: functional
Candida albicans [19] = assay: Antifungal activity against drug-resistant Candida albicans ATCC 76615 assessed as inhibition of cell wall synthesis in presence of sorbitol incubated for 24 hrs; format: functional
Candida albicans [20] = assay: Antifungal activity against fluconazole-resistant Candida albicans ATCC 76615 assessed as inhibition of fungal growth incubated for 24 to 72 hrs; format: functional; details: time 24-72 hrs
Aspergillus flavus [21] = assay: Antifungal activity against fluconazole-resistant Aspergillus flavus ATCC 16870 assessed as inhibition of fungal growth incubated for 24 to 72 hrs; format: functional; details: time 24-72 hrs
Candida tropicalis = assay: Inhibition of chitin synthase extracted from Candida tropicalis ATCC 750 using UDP-GlcNAc as substrate assessed as inhibition rate at 300 ug/ml by TMB based microplate analyzer relative to control; details: dose 300.0 µg/ml
Candida albicans [22] = assay: Antifungal activity against Candida albicans ATCC 76615 incubated for 24 hrs by half broth dilution based checkerboard method; format: functional
Candida albicans [23] = assay: Antifungal activity against Candida albicans ATCC 76615 assessed as fluconazole MIC incubated for 24 hrs in presence of fluconazole by half broth dilution based checkerboard method; format: functional
Aspergillus fumigatus [24] = assay: Antifungal activity against Aspergillus fumigatus GIMCC 3.19 incubated for 24 hrs by half broth dilution based checkerboard method; format: functional
Cryptococcus neoformans [25] = assay: Antifungal activity against Cryptococcus neoformans ATCC 32719 assessed as inhibition of growth incubated for 24 hrs by two-fold serial dilution method; format: functional
Candida albicans [26] = assay: Antifungal activity against micafungin-resistant Candida albicans ATCC 76615 assessed as inhibition of fungal growth incubated for 24 to 72 hrs; format: functional; details: time 24-72 hrs
Candida albicans [27] = assay: Synergistic antifungal activity against Candida albicans ATCC 76615 assessed as fractional inhibitory concentration index in presence of fluconazole incubated for 24 hrs by half broth dilution based checkerboard method; format: functional
Aspergillus fumigatus [28] = assay: Antifungal activity against Aspergillus fumigatus GIMCC 3.19 assessed as fluconazole MIC incubated for 24 hrs in presence of fluconazole by half broth dilution based checkerboard method; format: functional
Cryptococcus neoformans [29] = assay: Antifungal activity against Cryptococcus neoformans ATCC 32719 incubated for 24 hrs by half broth dilution based checkerboard method; format: functional
Cryptococcus neoformans [30] = assay: Antifungal activity against Cryptococcus neoformans ATCC 32719 assessed as Polyoxin B MIC incubated for 24 hrs in presence of fluconazole by half broth dilution based checkerboard method; format: functional
Candida albicans [31] = assay: Synergistic antifungal activity against Candida albicans ATCC 76615 assessed as fractional inhibitory concentration index in presence of Polyoxin B incubated for 24 hrs by half broth dilution based checkerboard method; format: functional
Aspergillus fumigatus [32] = assay: Synergistic antifungal activity against Aspergillus fumigatus GIMCC 3.19 assessed as fractional inhibitory concentration index in presence of Polyoxin B incubated for 24 hrs by half broth dilution based checkerboard method; format: functional
Cryptococcus neoformans [33] = assay: Antifungal activity against drug-resistant Cryptococcus neoformans ATCC 32719 assessed as inhibition of cell wall synthesis in presence of sorbitol incubated for 24 hrs; format: functional
Aspergillus flavus [34] = assay: Antifungal activity against drug-resistant Aspergillus flavus ATCC 16870 assessed as inhibition of cell wall synthesis in presence of sorbitol incubated for 24 hrs; format: functional

With `O=C(/C=C/C(=O)Nc1ccc2c(c1)NC(=O)C1(CCNC1=O)C2)Nc1ccc(Br)cc1` (racemic) the MIC (Candida albicans [1]) was 8 µg/mL, the MIC (Aspergillus flavus [2]) was 8 µg/mL and the “fractional inhibitory concentration index (FICI)” value (Aspergillus fumigatus [3]) was 0.75. It also gave an IC50 [4] of 179 µM, an MIC (Aspergillus fumigatus [5]) of 32 µg/mL (≈ 66.2 µM) and an MIC (Aspergillus flavus [6]) of 8 µg/mL. The “fractional inhibitory concentration index (FICI)” value (Aspergillus flavus [7]) was 1.5, the MIC (Aspergillus flavus [8]) was 4 µg/mL and the MIC (Aspergillus fumigatus [9]) was 256 µg/mL. The “fractional inhibitory concentration index (FICI)” value (Cryptococcus neoformans [10]) was 1, the “fractional inhibitory concentration index (FICI)” value (Cryptococcus neoformans [11]) was 1 and the MIC (Aspergillus fumigatus [12]) was 64 µg/mL (≈ 132 µM). The “fractional inhibitory concentration index (FICI)” value (Aspergillus flavus [13]) was 1.5, the MIC (Candida albicans [14]) was 16 µg/mL (≈ 33.1 µM) and the MIC (Aspergillus fumigatus [15]) was 16 µg/mL. It also gave an MIC (Cryptococcus neoformans [16]) of 32 µg/mL (≈ 66.2 µM), an MIC (Cryptococcus neoformans [17]) of 4 µg/mL and an MIC (Aspergillus flavus [18]) of 16 µg/mL (≈ 33.1 µM). The MIC (Candida albicans [19]) was 128 µg/mL, the MIC (Candida albicans [20]) was 64 µg/mL (≈ 132 µM) and the MIC (Aspergillus flavus [21]) was 64 µg/mL (≈ 132 µM). It also gave an inhibition (Candida tropicalis) of 72.7%, an MIC (Candida albicans [22]) of 4 µg/mL and an MIC (Candida albicans [23]) of 4 µg/mL. The MIC (Aspergillus fumigatus [24]) was 8 µg/mL, the MIC (Cryptococcus neoformans [25]) was 16 µg/mL (≈ 33.1 µM) and the MIC (Candida albicans [26]) was 32 µg/mL (≈ 66.2 µM). The “fractional inhibitory concentration index (FICI)” value (Candida albicans [27]) was 0.75, the MIC (Aspergillus fumigatus [28]) was 2 µg/mL and the MIC (Cryptococcus neoformans [29]) was 4 µg/mL. For the same compound, the MIC (Cryptococcus neoformans [30]) was 4 µg/mL, the “fractional inhibitory concentration index (FICI)” value (Candida albicans [31]) was 0.75 and the “fractional inhibitory concentration index (FICI)” value (Aspergillus fumigatus [32]) was 0.75. It also gave an MIC (Cryptococcus neoformans [33]) of 256 µg/mL.
With `O=C(CN1CCC(C(=O)Nc2cccc3ccccc23)CC1)Nc1ccc2c(c1)NC(=O)C1(CCNC1=O)C2` (racemic) the MIC (Candida albicans [1]) was 16 µg/mL, the MIC (Aspergillus flavus [2]) was 8 µg/mL and the “fractional inhibitory concentration index (FICI)” value (Aspergillus fumigatus [3]) was 1. For the same compound, the IC50 [4] was 99 µM, the MIC (Aspergillus fumigatus [5]) was 8 µg/mL (≈ 15.2 µM) and the MIC (Aspergillus flavus [6]) was 8 µg/mL. For the same compound, the “fractional inhibitory concentration index (FICI)” value (Aspergillus flavus [7]) was 2, the MIC (Aspergillus flavus [8]) was 1.5 µg/mL and the MIC (Aspergillus fumigatus [9]) was 512 µg/mL. For the same compound, the “fractional inhibitory concentration index (FICI)” value (Cryptococcus neoformans [10]) was 1, the “fractional inhibitory concentration index (FICI)” value (Cryptococcus neoformans [11]) was 1 and the MIC (Aspergillus flavus [34]) was 128 µg/mL. The MIC (Aspergillus fumigatus [12]) was 64 µg/mL (≈ 122 µM), the “fractional inhibitory concentration index (FICI)” value (Aspergillus flavus [13]) was 0.75 and the MIC (Candida albicans [14]) was 16 µg/mL (≈ 30.4 µM). It also gave an MIC (Aspergillus fumigatus [15]) of 8 µg/mL, an MIC (Cryptococcus neoformans [16]) of 64 µg/mL (≈ 122 µM) and an MIC (Cryptococcus neoformans [17]) of 0.75 µg/mL. For the same compound, the MIC (Aspergillus flavus [18]) was 8 µg/mL (≈ 15.2 µM), the MIC (Candida albicans [19]) was 256 µg/mL and the MIC (Candida albicans [20]) was 32 µg/mL (≈ 60.9 µM). The MIC (Aspergillus flavus [21]) was 64 µg/mL (≈ 122 µM), the inhibition (Candida tropicalis) was 84% and the MIC (Candida albicans [22]) was 16 µg/mL. For the same compound, the MIC (Candida albicans [23]) was 1 µg/mL, the MIC (Aspergillus fumigatus [24]) was 8 µg/mL and the MIC (Cryptococcus neoformans [25]) was 32 µg/mL (≈ 60.9 µM). The MIC (Candida albicans [26]) was 32 µg/mL (≈ 60.9 µM), the “fractional inhibitory concentration index (FICI)” value (Candida albicans [27]) was 0.75 and the MIC (Aspergillus fumigatus [28]) was 2 µg/mL. For the same compound, the MIC (Cryptococcus neoformans [29]) was 2 µg/mL, the MIC (Cryptococcus neoformans [30]) was 32 µg/mL and the “fractional inhibitory concentration index (FICI)” value (Candida albicans [31]) was 0.75. The “fractional inhibitory concentration index (FICI)” value (Aspergillus fumigatus [32]) was 1.5 and the MIC (Cryptococcus neoformans [33]) was 512 µg/mL.
In the case of `O=C(CN1CCC(C(=O)Nc2ccc(Br)cc2)CC1)Nc1ccc2c(c1)NC(=O)C1(CCNC1=O)C2` (racemic), the MIC (Candida albicans [1]) is reported as 16 µg/mL, the MIC (Aspergillus flavus [2]) is reported as 32 µg/mL and the “fractional inhibitory concentration index (FICI)” value (Aspergillus fumigatus [3]) is reported as 1. It also gave an IC50 [4] of 116 µM, an MIC (Aspergillus fumigatus [5]) of 16 µg/mL (≈ 28.9 µM) and an MIC (Aspergillus flavus [6]) of 32 µg/mL. It also gave a fractional inhibitory concentration index (FICI) (Aspergillus flavus [7]) of 0.5, an MIC (Aspergillus flavus [8]) of 4 µg/mL and an MIC (Aspergillus fumigatus [9]) of 512 µg/mL. For the same compound, the “fractional inhibitory concentration index (FICI)” value (Cryptococcus neoformans [10]) was 0.75, the “fractional inhibitory concentration index (FICI)” value (Cryptococcus neoformans [11]) was 1.5 and the MIC (Aspergillus flavus [34]) was 256 µg/mL. For the same compound, the MIC (Aspergillus fumigatus [12]) was 64 µg/mL (≈ 115 µM), the “fractional inhibitory concentration index (FICI)” value (Aspergillus flavus [13]) was 1.25 and the MIC (Candida albicans [14]) was 16 µg/mL (≈ 28.9 µM). The MIC (Aspergillus fumigatus [15]) was 16 µg/mL, the MIC (Cryptococcus neoformans [16]) was 32 µg/mL (≈ 57.7 µM) and the MIC (Cryptococcus neoformans [17]) was 2 µg/mL. The MIC (Aspergillus flavus [18]) was 32 µg/mL (≈ 57.7 µM), the MIC (Candida albicans [19]) was 256 µg/mL and the MIC (Candida albicans [20]) was 32 µg/mL (≈ 57.7 µM). It also gave an MIC (Aspergillus flavus [21]) of 64 µg/mL (≈ 115 µM), an inhibition (Candida tropicalis) of 63% and an MIC (Candida albicans [22]) of 16 µg/mL. The MIC (Candida albicans [23]) was 4 µg/mL, the MIC (Aspergillus fumigatus [24]) was 16 µg/mL and the MIC (Cryptococcus neoformans [25]) was 8 µg/mL (≈ 14.4 µM). The MIC (Candida albicans [26]) was 32 µg/mL (≈ 57.7 µM), the “fractional inhibitory concentration index (FICI)” value (Candida albicans [27]) was 1 and the MIC (Aspergillus fumigatus [28]) was 2 µg/mL. The MIC (Cryptococcus neoformans [29]) was 8 µg/mL, the MIC (Cryptococcus neoformans [30]) was 8 µg/mL and the “fractional inhibitory concentration index (FICI)” value (Candida albicans [31]) was 1. For the same compound, the “fractional inhibitory concentration index (FICI)” value (Aspergillus fumigatus [32]) was 1 and the MIC (Cryptococcus neoformans [33]) was 128 µg/mL.
